A short description of data set [1]: SFA adhesion of cured PMA resin between primer-treated mica surfaces. The conditions noted are these: for adhesion pressure Pad: n=5. The protocol: Atomically-smooth muscovite mica sheets were freshly cleaved (thickness of 2-5 μm) and attached on another large freshly cleaved mica backing sheet under a laminar flow hood and placed in a desiccator for clean storage. To ensure use of a fresh surface for each experiment, mica was peeled away from the backing sheet and glued on cylindrical disks using an epoxy glue (EPON 1004 F® from Exxon Chemicals). In each experiment, the mica surfaces were treated with one of the primer solutions, as described for the lap shear experiments, and then mounted in the SFA in a cross cylindrical geometry. In contrast to typical SFA experiments, which use an interferometric method to calculate the disk-disk separation distances and thus the interaction forces, in the SFA used here for adhesion testing, the disk separations were directly measured using semiconductor strain-gauged double cantilever springs (k=1000-10000 N/m)(see FIG. 67). After separating the surfaces, 100 […]1 of comonomer blend was injected between the two surfaces. Then, ˜600 mN of load was applied, followed by visible light curing for 1 min using the portable dental curing lamp (see FIG. 54G). Adhesion strength of cured polymer toward the mica was measured by detaching (unloading) two surfaces. All loading and unloading were performed using a coarse micrometer at the velocity of […]. The SFA measurements were repeated at least 5 times for each condition.

Data set [2] is described as follows: AFM height profiles of adsorbed primers. To be noted: for adsorption seen by AFM: 1 wt.% solution, mica and glass; for AFM height: mica. Format: physicochemical. On the procedure:
Each primer solution (1 wt %) was prepared in methanol (for P1-P3) or DMSO (for P4). The primer solution was drop cast onto a freshly cleaved mica or glass surface, and kept at room temperature for 1 min. Subsequently, the surfaces were thoroughly rinsed with the respective solvents and dried with argon. All images, surface profiles and surfaces roughnesses were collected using an Asylum MFP-3D standard system (Asylum Research, Santa Barbara, CA) using silicon cantilevers (FORTGG-50, Applied NanoStructures, Santa Clara, CA) (FIGS. 48C and 49).

Data set [3] in a line: Lap shear test of cured PMA resin on primed silica/glass. To be noted: second value of each pair (silica). On the procedure: (§1) 1 wt % primer solution was spread on mica, glass, tooth enamel, or a silicon wafer and incubated for 1 min, followed by thorough washing with methanol (for MDP, P1-P3) or DMSO (for P4) and drying by flowing nitrogen. The surfaces were exposed to a basic aqueous solution (pH 9, using sodium hydroxide), incubated for 1 min, and drying by flowing nitrogen (see FIG. 52). The methacrylic comonomer blend (Bis-GMA, TEGDMA, DMAEMA and CQ) was packed in a gelatin capsule (size #4, 5-mm diameter, Torpac Inc.) and placed up on top of the primer-treated substrates. The comonomer blend was cured (or crosslinked) for 1 min using a portable dental curing lamp (Foshan Liang Ya Dental Co., LY-A180, 420-480 nm, 1200-2000 mW·cm^−2) (see FIG. 53). Uniaxial compression was applied to the capsule at a rate of 0.05 inch min^−1 using a materials testing system (MTS Bionix 200) until the capsules are separated from the substrate. The lap shear fracture measurements were repeated at least 10 times for each condition.

The nature of data set [4]: QCM-D adsorption of primers. The class given is physicochemical. To be noted: for mass loss during rinsing: of initial mass. On the procedure:
A ‘static cell’ (often called ‘Open Module’) QCM-D (Q-Sense, Biolin Scientific) was employed to quantitatively evaluate the adsorption of each primer onto SiO2 surface using a quartz sensor (QSX 303, Biolin Scientific). Changes in resonance frequency (ΔF) and dissipation (ΔD) of the SiO2 were recorded and used to measure the adsorbed mass and layer viscoelasticity, respectively, of the primer deposited on the sensor. In detail, pure solvent (100 μl) was dropped onto the sensor and equilibrated for ˜20-30 min. Then, 2 wt % primer solution (100 μl) was dropped onto the sensor (this is labeled “Solution Drop-in” in FIG. 51) and equilibrated until the frequency and dissipation signals stabilized. To remove unbound primers, the sensor was rinsed with solvents (this is labeled “Solvent Rinsing” in FIG. 51) and equilibrated until frequency and dissipation signals stabilized.
Mass loss of P3 and P4 during the rinsing was negligible compared to P2 which lost 60% of initial mass, indicating outstanding adsorption efficiency of catechol-containing primers on SiO2 surfaces even compared to mussel foot protein adsorption (˜30% loss of mfp-3s^3). The priming thickness of P4 estimated by QCM-D is ˜3.1 nm which agrees with the average height of AFM images (˜3.5 nm), assuming that QCM-D measures the average thickness of a uniform layer. The smaller average thickness of P4 (˜3.1 nm) compared to the molecular contour length (˜4.8 nm) may be attributed to the flexible alkyl spacer in P4. The possibility of a softer, more flexible layer with P4 is supported by a higher change in dissipation (ΔD) compared to other primers.

The nature of data set [5]: Lap shear test of cured PMA resin on primed tooth enamel. Also noted: species or system human. The protocol: as §1
Data set [6] in a line: Lap shear test of cured PMA resin on primed mica. To be noted: first value of each pair (mica). The protocol:
as §1

The test system of data set [7] is L929 mammalian fibroblast cells. The experiment in a line: Cell viability assay on surface treated glass (ISO 10993). The class given is cell-based. The conditions noted are these: primed glass surface, 3 days, trypan blue. The protocol: L929 mammalian fibroblast cells were purchased from the Korean Cell Line Bank (Seoul, Korea) and cultured in Roswell Park Memorial Institute (RPMI) 1640 media (Life Technologies) with 10% fetal bovine serum, 25 mM sodium bicarbonate and 1% penicillin-streptomycin. Silane-grafted and Catechol (P3) primed glass slides were prepared by following procedures described in section 6 and 3, respectively. Each glass substrate was placed on the 100π cell culture plate and sterilized by 70% ethanol solution. After equilibrated in phosphate buffered saline (PBS) and media for 5 min each, L929 cells were seeded onto the glass substrates at a density of 1×10^6 cells per plate. Cells were incubated for 3 days in 5% CO2 at 37° C. After 3 days, the substrates were transferred to new culture plates and washed extensively with PBS. Cells were then detached by 0.05% trypsin-EDTA and stained with trypan blue solution to assess cell viability. Living cells are impermeable to the stain, whereas dead cells with compromised membranes turn blue. The number of live cells was counted using a standard hemocytometer. The bare glass slide without any modification served as a control (FIGS. 56A-56B).

A short description of data set [8]: Contact angle measurements on SAM-modified substrates. The class given is physicochemical. To be noted: SAM-modified nano-grooved SiO2. On the procedure: The nano-grooved SiO2 substrates passivated with Z-Cat-Ben or Z-Cat-Ben-F SAMs were prepared with the same procedure described above. For the reference substrate, the pre-cleaned and ultraviolet/ozone-treated (for 10 min) nano-grooved SiO2 substrate was passivated with n-decyltrichlorosilane (Gelest Inc.) in toluene solution (1% by volume) at 80° C. for 20 min in ambient air. Then, the substrate was subsequently sonicated in toluene and rinsed with additional toluene several times. Anhydrous chlorobenzene (50 μL) was used as a droplet dropping on the substrates. All contact angle images were taken at the direction perpendicular to nano-grooves in the substrates using Dataphysics OCA 15EC goniometer.

The conditions of data set [9]: n-DTS-modified nano-grooved SiO2, earlier reports; cited from earlier work.
The nature of data set [10]: Surface forces apparatus (SFA) cohesion/adhesion between thin films on mica. To be noted: symmetric films adsorbed from 5 mM, DI water, mica. Format: physicochemical. On the procedure:
The interaction between two surfaces can be measured with nano-Newton level force resolution and Angstrom level resolution in the separation distance between the surfaces. The details of the SFA techniques have been describe in a work by Israelachvili et al. In a typical SFA experiment (FIG. 2C), the distance and the force between the surfaces are measured simultaneously. To begin with, the instrument is calibrated at large separation distances. When the two surfaces are not interacting, i.e., they are separated by large distances, the change in the separation between them is equal to the distance through which the motor moves the lower surface towards or away from the upper surface (or the upper surface driven by the piezo-tube moves towards the lower surface). However, once the surfaces are close enough to start interacting with each other, the measured separation distance deviates from the expected separation calibrated when there is no force between the surfaces. This deviation is due to the deflection of the double cantilever spring and is directly proportional to the force acting normally between the two opposing surfaces. Thus the normal force can be measured using Hooke's law, F=kΔx, where k is the spring constant of the double-cantilever spring and Δx=Dactual−Dapplied is the deflection of the spring, determined by taking the difference between the applied change in position of one of the surfaces Dapplied and the actual change in distance measured between the surfaces Dactual. The actual distance, Dactual, between the surfaces can be measured by multiple beam interferometry (MBI) and will be discussed below.
The distance between the surfaces, shape of the interface and the refractive index of the media between the surfaces can be accurately determined by Multiple Beam Interferometry (MBI) technique. In this technique, white light is directed through two back-silvered mica surfaces (or uniform and same thickness). As a white light passes between the mica surfaces, it undergoes interference due to the optical trap set up by the back silver on each of these surfaces giving rise to discrete wavelengths of light (FIG. 2C). These wavelengths of light are resolved in a spectrometer creating interference fringes known as ‘fringes of equal chromatic order’ (FECO). Since mica is birefringent, the FECO appears as doublets and termed as β and γ. Alternate fringes are termed as odd and even fringes with odd fringes having nodes at the center and even fringes with anti-nodes in the center. The FECO is then recorded on a camera and analyzed to determine the distance between the surfaces using the following equations: […]
The adhesion/cohesion energy of the synthetic zwitterionic molecules was investigated in SFA (SurForce LLC, Santa Barbara, CA). Two molecularly smooth freshly cleaved back silvered mica surfaces glued on cylindrical silica discs of radius of curvature, R˜2 cm, were mounted in the SFA and 50 μL of a colloidal dispersion of the synthetic molecules in DI water were injected between the surfaces at different concentrations (C=0.5-5 mM) and the forces between the thin films of the molecules were measured by Multiple Beam Interferometry (MBI). The adhesion forces between Z-Cat-C10 molecules on various surfaces, e.g., silica and copper, were also measured by AFM (MFP-3D, Asylum research, Goleta, CA) in DI water and ambient conditions, respectively, at room temperature. AFM probes with a silicon dioxide particle (10, 5, and 1 μm, respectively) on a silicon nitride (SN) cantilever-0.6 N m^−1 were purchased from Novascan Technologies, Inc (Ames, IA). Cantilever spring constants were measured for each force run. Images of Z-Cat-C10 coating on silicon wafer and copper plates were visualized in an AFM. […]

Data set [11] can be described thus: Stability of isolated compound over time (NMR observation). The class given is physicochemical. To be noted: after isolation. On the procedure: Attempts to increase the level of purity by either recrystallization or HPLC were unsuccessful and the compound was used “as is” for further study. It is recommended that extra care is taken to ensure that this compound be protected from atmospheric oxygen, and be used and analyzed immediately after isolation. […] Reaction time=4 days (96 hours) 69% isolated yield.

Where “and” joins values, the source holds several entries; their conditions need not be identical. Identical values can stand only once.

We go through 4 molecules from patent US12415939B2, “Nano-adhesive and surface primer compound and use thereof” (The Regents of the University of California, priority 2015, dated 2025).

`C=CC(=O)OCCCCCCCCOC(=O)CCc1ccc(O)c(O)c1` [P4, 8-((3-(3,4-dihydroxyphenyl)propanoyl)oxy)octyl acrylate]: in data set [1], the “increase in adhesion vs plain mica (no primer)” value is reported as approximately 4 fold and the “adhesion pressure Pad” value is on record as 81.7±18.5 kPa. In data set [2], the “adsorption seen by AFM” value is given as “densely primed” and the AFM height is reported as approximately 3.5 nm. For the same molecule, the “lap shear strength σshear,max” value in data set [3] stood at 4.5±0.5 MPa. Further, in data set [4], the “thickness from QCM-D” value was approximately 3.1 nm and the “mass loss during rinsing” value is reported as “negligible”. In addition, in [4] (Sauerbrey, after rinsing), the “surface concentration of adsorbed layer” value stood at 345 ng/cm^2. In addition, the “lap shear strength σshear,max” value in [5] is reported as 3.0±0.3 MPa. Besides, the “lap shear strength σshear,max” value in [6] was found to be 0.9±0.1 MPa.

With `C=CC(=O)OCC(O)Cc1ccc(O)c(O)c1` (centres unmarked) [P3, 3-(3,4-dihydroxyphenyl)-2-hydroxypropyl acrylate], in [1], the “Pad relative to MDP primer” value was approximately 8 times; the “Pad relative to Silane primer” value is recorded as approximately 2 times; the “increase in adhesion vs plain mica (no primer)” value is recorded as approximately 10 fold; the “adhesion pressure Pad” value was 201.5±50.2 kPa and ~200 kPa. Besides, in data set [7], the contact cytotoxicity result is given as “non-toxicity was confirmed”. In data set [2], the “adsorption seen by AFM” value was “densely primed” and the AFM height is 1-2 nm. The “lap shear strength σshear,max” value in data set [3] is 4.2±0.7 MPa. Besides, in data set [4], the “thickness from QCM-D” value is listed as approximately 1.6 nm and the “mass loss during rinsing” value was “negligible”. The “lap shear strength σshear,max” value in data set [5] was 3.0±0.3 MPa. Besides, in data set [6], the “lap shear strength σshear,max” value is reported as 0.8±0.2 MPa.

For `CCCCCCCCCC[Si](Cl)(Cl)Cl` [n-DTS, n-decyltrichlorosilane, reference compound], the “contact angle θ of chlorobenzene droplet” value in data set [8] was “≈ 31 °”. In addition, in [9], the saturation hole mobilities is recorded as 23-58 cm^2 V^−1 s^−1.

Regarding `C[N+](C)(CCCc1ccc(O)c(O)c1)CCOP(=O)([O-])OCCCc1ccc(O)c(O)c1` [Z-Cat-Cat], in [10], the “cohesion (or adhesion) energy Wc” value came to 8.1±1.3 mJ m^−2. Besides, in [11], the stability over time entry is “highly susceptible to degradation over time”.
